From article PMC10778626, “Efficacy of Novel Quaternary Ammonium and Phosphonium Salts Differing in Cation Type and Alkyl Chain Length against Antibiotic-Resistant Staphylococcus aureus” (International Journal of Molecular Sciences, 2023)
Read-outs that look alike come from different tables or passages of the source.

Experiments:
S. aureus CECT 976 = experiment: MIC/MBC by broth microdilution, S. aureus CECT 976; type: cell-based; details: Staphylococcus aureus
Description: The minimum inhibitory concentration (MIC) and minimum bactericidal concentration (MBC) values of all QHSs were determined by the broth microdilution method, according to the approved M7-A7 (aerobes) standards of the Clinical and Laboratory Standards Institute (CLSI) guidelines. Overnight cell cultures of S. aureus, in the exponential phase of growth, were adjusted to an optical density (OD) of 0.132 ± 0.02 (λ = 600 nm). Then, a volume of 180 µL of the cell suspension was added to sterile, flat, clear-bottomed polystyrene (PS) 96-well microtiter plates (VWR—Radnor, PA, USA), already containing 20 µL of each QHS under study at concentrations ranging from 0.0625 to 64 µg/mL. In the end, the volume of each compound never exceeded 10% (v/v) of the well volume. Microtiter plates were then incubated for 24 h at 37 °C under agitation (150 rpm; INCU-Line IL 150R incubator). Absorbance measurements were performed at the beginning (t = 0 h) and end (t = 24 h) of the incubation period using a microtiter plate absorbance reader (BMG LABTECH FLUOstar Omega). Bacterial suspensions with DMSO and without QHSs were used as negative controls. […] All tests were performed with six replicates and a minimum of three independent repeats.
Plates were incubated at 37 °C for 24 h, and growth was visually inspected. […] All tests were performed in triplicate, and with a minimum of three independent repeats.

[1] = Chromatographic hydrophobicity index (CHI) by UHPLC; type: physicochemical; details: for CHI: LC/UV at pH 2.6, calculated from retention time with the calibration line; for chromatographic logP: back-calculated from CHI at pH 2.6: CHI LogP = 0.047 × CHI + 0.36 × HBC − 1.10
Description: The chromatographic hydrophobicity index (CHI) values were determined using the retention times (tR) of the samples under study and of a mixture of standard compounds on a UHPLC NEXERA SERIES LC-40 with a Luna C18 (2) column of 150 × 4.6 mm, 5 μm (Phenomenex, Torrance, CA, USA). Stock solutions of the test compounds (10 mM) were prepared in dimethyl sulfoxide (DMSO, 99.9%; Carlo Erba) and diluted in acetonitrile/water (1:1) to obtain a final concentration of 500 μM. The mobile phase A was 1.0% (v/v) aqueous acetic acid solution (pH = 2.6), and the mobile phase B was acetonitrile. The following gradient programme was applied: 1–7 min 0–100% B, 7–17 min 100% B, 17–19 min 100–0% B, 1 mL/min flow; rt, injection volume 40 μL.
A calibration line was obtained using a mixture of the following compounds: benzimidazole, theophylline, paracetamol, caffeine, colchicine, carbamazepine, indole, propiophenone, butyrophenone, valerophenone, and heptanophenone (Table S1 and Figure S50, Supplementary Materials). The experimental CHI values of the compounds tested at pH 2.6 were then converted to the logarithm of octanol/water partition coefficient (CHI LogP) values using Equation (1). CHI LogP = 0.047 × CHI + 0.36 × HBC − 1.10 (1) where HBC is the hydrogen bond donor count.

[2] = CECT976, S. aureus CECT 976, broth microdilution, 24 h, 37 °C, read-out: MIC
[3] = CECT976, S. aureus CECT 976, broth microdilution, plated on PCA, read-out: MBC

Compound | MIC (S. aureus CECT 976; [2]) [µg/mL] | CHI [1] | chromatographic logP [1] | MBC (S. aureus CECT 976; [3]) [µg/mL] | MBC (S. aureus CECT 976; CECT976) [µg/mL] | MIC (S. aureus CECT 976; CECT976, 24 h) [µg/mL]
CCCCCCCCCCCC[P+](c1ccccc1)(c1ccccc1)c1ccccc1 [Compound 1d, Dodecyltriphenylphosphonium bromide] |  | 94.50 | 3.34 |  | 16 | 1
CCCCCCCCCCCCCCCC[n+]1cccc2ccccc21.[Br-] [Compound 5f, 1-Hexadecylquinolin-1-ium bromide] | 4 | 101.1 | 3.65 | 8 |  | 
CCCCCCCCCC[P+](c1ccccc1)(c1ccccc1)c1ccccc1 [Compound 1c, Decyltriphenylphosphonium bromide] | 1 | 82.58 | 2.78 | 8 |  | 
CCCCCCCCCCCCCCCC[n+]1ccccc1.[Br-] [Compound 6f, 1-Hexadecylpyridin-1-ium bromide] |  | 94.47 | 3.34 |  | 8 | 
CCCCCCCCCC[n+]1ccn(C)c1.[Br-] [Compound 2c, 3-Decyl-1-methyl-1H-imidazol-3-ium bromide] | 16 | 54.51 | 1.46 | > 64 |  | 
CCCCCC[P+](c1ccccc1)(c1ccccc1)c1ccccc1 [Compound 1a, Hexyltriphenylphosphonium bromide] | 8 | 60.58 | 1.75 | > 64 |  | 
CCCCCCCCCCCC[n+]1ccn(C)c1.[Br-] [Compound 2d, 3-Dodecyl-1-methyl-1H-imidazol-3-ium bromide] | 1 | 67.25 |  | 16 |  | 
CCCCCCCCCCCCCCCCCC[P+](c1ccccc1)(c1ccccc1)c1ccccc1 [Compound 1g, Octadecyltriphenylphosphonium bromide] | 4 | 128.2 | 4.93 | 64 |  | 
CCCCCCCCCCCCCCCCCC[n+]1ccn(C)c1.[Br-] [Compound 2g, 1-Methyl-3-octadecyl-1H-imidazol-3-ium bromide] | 8 | 109.2 | 4.03 | 16 |  | 
CCCCCCCCCCCCCCCC[P+](c1ccccc1)(c1ccccc1)c1ccccc1 [Compound 1f, Hexadecyltriphenylphosphonium bromide] | 2 | 115.5 | 4.33 | 16 |  | 
CCCCCCCC[n+]1ccc2ccccc2c1.[Br-] [Compound 3b, 2-Octylisoquinolin-2-ium bromide] |  | 50.02 | 1.25 |  | > 64 | 64
CCCCCCCCCCCCCCCC[n+]1ccn(C)c1.[Br-] [Compound 2f, 3-Hexadecyl-1-methyl-1H-imidazol-3-ium bromide] | 4 | 95.91 | 3.41 | 8 |  | 
CCCCCCCC[n+]1ccn(C)c1.[Br-] [Compound 2b, 1-Methyl-3-octyl-1H-imidazol-3-ium bromide] | > 64 | 42.19 | 0.883 | > 64 |  | 
CCCCCCCC[P+](c1ccccc1)(c1ccccc1)c1ccccc1 [Compound 1b, Octyltriphenylphosphonium bromide] | 2 | 71.06 | 2.24 | 16 |  | 

Further lines, with some results ahead:

MIC (S. aureus CECT 976; [2]) [µg/mL] | CHI [1] | chromatographic logP [1] | Compound | MBC (S. aureus CECT 976; [3]) [µg/mL] | MBC (S. aureus CECT 976; CECT976) [µg/mL] | MIC (S. aureus CECT 976; CECT976, 24 h) [µg/mL]
> 64 | 40.78 | 0.817 | CCCCCCCC[n+]1ccccc1.[Br-] [Compound 6b, 1-Octylpyridin-1-ium bromide] | > 64 |  | 
8 | 108.1 | 3.98 | CCCCCCCCCCCCCCCCCC[n+]1ccccc1.[Br-] [Compound 6g, 1-Octadecylpyridin-1-ium bromide] | 16 |  | 
16 | 61.45 | 1.79 | CCCCCCCCCC[n+]1cccc2ccccc21.[Br-] [Compound 5c, 1-Decylquinolin-1-ium bromide] | 32 |  | 
64 |  |  | CCCCCCCCCCCCCCCC[N+](CC)(CC)CC.[Br-] [Compound 7f, N,N,N-Triethylhexadecan-1-aminium bromide] | 64 |  | 
32 | 55.99 | 1.53 | CCCCCCCCCC[n+]1ccc(C)cc1.[Br-] [Compound 4c, 1-Decyl-4-methylpyridin-1-ium bromide] | > 64 |  | 
32 | 53.07 | 1.4 | CCCCCCCCCC[n+]1ccccc1.[Br-] [Compound 6c, 1-Decylpyridin-1-ium bromide] | > 64 |  | 
> 64 | 43.90 | 0.963 | CCCCCCCC[n+]1ccc(C)cc1.[Br-] [Compound 4b, 4-Methyl-1-octylpyridin-1-ium bromide] | > 64 |  | 
16 | 61.62 | 1.8 | CCCCCCCCCC[n+]1ccc2ccccc2c1.[Br-] [Compound 3c, 2-Decylisoquinolin-2-ium bromide] | 64 |  | 
16 |  |  | CCCCCCCCCCCCCCCCCC[N+](CC)(CC)CC.[Br-] [Compound 7g, N,N,N-Triethyloctadecan-1-aminium bromide] | 16 |  | 
> 64 |  |  | CCCCCCCC[N+](CC)(CC)CC.[Br-] [Compound 7b, N,N,N-Triethyloctan-1-aminium bromide] | > 64 |  | 
> 64 | 36.98 | 0.638 | CCCCCC[n+]1cccc2ccccc21.[Br-] [Compound 5a, 1-Hexylquinolin-1-ium bromide] | > 64 |  | 
> 64 |  |  | CCCCCC[N+](CC)(CC)CC.[Br-] [Compound 7a, N,N,N-Triethylhexan-1-aminium bromide] | > 64 |  | 
2 | 68.96 | 2.14 | CCCCCCCCCCCC[n+]1ccc(C)cc1.[Br-] [Compound 4d, 1-Dodecyl-4-methylpyridin-1-ium bromide] | 16 |  | 
4 | 74.21 | 2.39 | CCCCCCCCCCCC[n+]1cccc2ccccc21.[Br-] [Compound 5d, 1-Dodecylquinolin-1-ium bromide] | 16 |  | 
2 | 65.58 |  | CCCCCCCCCCCC[n+]1ccccc1.[Br-] [Compound 6d, 1-Dodecylpyridin-1-ium bromide] | 8 |  | 
4 |  |  | CCCCCCCCCCCC[N+](CC)(CC)CC.[Br-] [Compound 7d, N,N,N-Triethyldodecan-1-aminium bromide] | 16 |  | 
8 | 109.2 | 4.03 | CCCCCCCCCCCCCCCCCC[n+]1ccc(C)cc1.[Br-] [Compound 4g, 4-Methyl-1-octadecylpyridin-1-ium bromide] | 16 |  | 
16 | 49.24 | 1.21 | CCCCCCCC[n+]1cccc2ccccc21.[Br-] [Compound 5b, 1-Octylquinolin-1-ium bromide] | > 64 |  | 
64 |  |  | CCCCCCCCCC[N+](CC)(CC)CC.[Br-] [Compound 7c, N,N,N-Triethyldecan-1-aminium bromide] | > 64 |  | 
> 64 | 31.08 | 0.361 | CCCCCC[n+]1ccc(C)cc1.[Br-] [Compound 4a, 1-Hexyl-4-methylpyridin-1-ium bromide] | > 64 |  | 
8 | 113.1 | 4.21 | CCCCCCCCCCCCCCCCCC[n+]1ccc2ccccc2c1 [Compound 3g] | 16 |  | 
4 | 96.77 | 3.45 | CCCCCCCCCCCCCCCC[n+]1ccc(C)cc1.[Br-] [Compound 4f, 1-Hexadecyl-4-methylpyridin-1-ium bromide] | 8 |  | 
